What is called IC50 is the midpoint of a concentration-inhibition curve. Low readings indicate greater potency, high ones weaker potency.

The target in the experiment is T1, BCL6::BCOR (Homo sapiens, UniProt P41182, C67R/C84N/C8Q).
T1 construct: BCL6 (amino acids 5 to 129, with the following changes to the natural protein); made in house; host or cells: E. coli
The experiment is described as follows: BCL6::BCOR ULight TR-FRET assay. The experiment is classed as binding. The source says: Biological Methods BCL6::BCOR ULight TR-FRET Assay:
Biotinylated BCL6 protein corresponding to BCL6 (amino acids 5 to 129, with the following changes to the natural protein: C8Q, C67R, C84N) is expressed in E. coli with a carboxy-terminal Avi tag (amino acid sequence […]). The BCOR ULight peptide uses a direct carboxy-terminal ULight tag (PerkinElmer). The sequence of the peptide is CRSEIISTAPSSWVVPGP, with the amino terminus acetylated and the ULight tag attached to the cysteine. Compounds are dispensed onto assay plates (Proxiplate 384 PLUS, white, PerkinElmer) using an Access Labcyte Workstation with the Labcyte Echo 55×from a DMSO solution. For the chosen highest assay concentration of 100 μM, 150 nl of compound solution are transferred from a 10 mM DMSO compound stock solution. A series of 11 concentrations is transferred for each compound at which each concentration is fivefold lower than the previous one. DMSO is added such that every well has a total of 150 nl compound solution. 5 μL of 1 nM BCL6 protein in assay buffer (50 mM HEPES pH 7.3; 125 mM NaCl; 1 mM GSH; 0.01% Triton-X 100; 0.03% BSA) are added to the 150 nl of compounds. After 30 minutes incubation time at room temperature, 10 μL of a mix containing BCOR ULight peptide (100 nM final assay concentration) and Streptavidin-Europium (0.75 nM final assay concentration) are added. Plates are kept at room temperature. After 240 minutes incubation time the TR-FRET signal is measured in a PerkinElmer Envision HTS Multilabel Reader using the TR-FRET LANCE Ultra specs of PerkinElmer. Each plate contains negative controls (diluted DMSO instead of test compound; BCOR peptide and Streptavidin Europium mix with BCL6 protein) and positive controls (diluted DMSO instead of test compound; BCOR peptide and Streptavidin-Europium mix without BCL6 protein). Negative and positive control values are used for normalization.
(In general: Time-resolved FRET reads energy transfer from a long-lived donor to a nearby acceptor.)

For the compound `C[C@@H]1C[C@H](C)CN(c2ncc(Cl)c(Nc3ccc4c(c3)cc(O[C@H](C)C(=O)O)c(=O)n4C)n2)C1` (relative stereo) [Compound I-154], half-maximal inhibition (IC50) was put at 82 nM.

The compound `CNC(=O)COc1cc2cc(Nc3nc(N4C[C@H](C)C[C@@H](C)C4)ncc3Cl)ccc2n(C)c1=O` (single isomer, unassigned) [Compound I-5] showed an IC50 of 12 nM.

Compound `CNC(=O)COc1cc2cc(Nc3nc(N4C[C@@H](C)C[C@H](C)C4)ncc3Cl)ccc2n(C)c1=O` (single isomer, unassigned) [Compound I-6] came in with an IC50 of 7 nM.

With `CNC(=O)COc1cc2cc(Nc3nc(N4C[C@H](CO)N[C@@H](C)C4)ncc3Cl)ccc2n(C)c1=O` (single isomer, unassigned) [Compound I-10], the IC50 is 18 nM.

For the compound `CNC(=O)COc1cc2cc(Nc3nc(N4C[C@@H](CO)N[C@@H](C)C4)ncc3Cl)ccc2n(C)c1=O` (single isomer, unassigned) [Compound I-11], the IC50 was determined as 13 nM.

For `C[C@@H]1C[C@H](C)CN(c2ncc(Cl)c(Nc3ccc4c(c3)cc(OC[S@@+](C)[O-])c(=O)n4C)n2)C1` (single isomer, unassigned) [Compound I-173], the concentration for half-maximal inhibition (IC50) was 37 nM.

In turn, `C[C@@H]1C[C@H](C)CN(c2ncc(Cl)c(Nc3ccc4c(c3)cc(OC[S+](C)[O-])c(=O)n4C)n2)C1` (single isomer, unassigned) [Compound I-174] returned an IC50 of 16 nM.

In the case of `COC(=O)COc1cc2cc(Nc3nc(N4C[C@H](C)C[C@H](C)C4)ncc3Cl)ccc2n(C)c1=O` [Compound I-1, methyl 2-{[6-({5-chloro-2-[cis-3,5-dimethylpiperidin-1-yl]pyrimidin-4-yl}amino)-1-methyl-2-oxo-1,2-dihydroquinolin-3-yl]oxy}acetate], the half-maximal inhibitory concentration (IC50) was determined as 10 nM.

The compound `COC(=O)COc1cc2cc(Nc3nc(N4CCC(F)CC4)ncc3Cl)ccc2n(C)c1=O` [Compound I-2, methyl 2-[(6-{[5-chloro-2-(4-fluoropiperidin-1-yl)pyrimidin-4-yl]amino}-1-methyl-2-oxo-1,2-dihydro-quinolin-3-yl)oxy]-acetate] returned an IC50 of 9 nM.

Compound `CNC(=O)COc1cc2cc(Nc3nc(N4CCN(CCOC)CC4)ncc3Cl)ccc2n(C)c1=O` [Compound I-3, 2-{[6-({5-chloro-2-[4-(2-methoxyethyl)piperazin-1-yl]pyrimidin-4-yl}amino)-1-methyl-2-oxo-1,2-dihydroquinolin-3-yl]oxy}-N-methylacetamide] showed a half-inhibitory concentration (IC50) of 7 nM.

The compound `CNC(=O)COc1cc2cc(Nc3nc(N4C[C@H](C)C[C@H](C)C4)ncc3Cl)ccc2n(C)c1=O` [Compound I-4, 2-[(6-{[5-chloro-2-(cis-3,5-dimethylpiperidin-1-yl)pyrimidin-4-yl]amino}-1-methyl-2-oxo-1,2-dihydro-quinolin-3-yl)oxy]-N-methylacetamide] displayed an IC50 of 3 nM.

The compound `CNC(=O)COc1cc2cc(Nc3nc(N4C[C@H]5CC[C@@H](C4)O5)ncc3Cl)ccc2n(C)c1=O` [Compound I-7, 2-({6-[(5-chloro-2-{8-oxa-3-azabicyclo[3.2.1]octan-3-yl}pyrimidin-4-yl)amino]-1-methyl-2-oxo-1,2-dihydroquinolin-3-yl}oxy)-N-methylacetamide] displayed a half-maximal inhibitory concentration (IC50) of 5 nM.

In turn, `CNC(=O)COc1cc2cc(Nc3nc(N4C[C@H](C)C[C@@H](NC)C4)ncc3Cl)ccc2n(C)c1=O` [Compound I-8, 2-{[6-({5-chloro-2-[(3R,5R)-3-methyl-5-(methylamino)piperidin-1-yl]pyrimidin-4-yl}amino)-1-methyl-2-oxo-1,2-dihydroquinolin-3-yl]oxy}-N-methylacetamide] showed a 50% inhibitory concentration (IC50) of 21 nM.

Turning to `CNC(=O)COc1cc2cc(Nc3nc(N4C[C@H](CO)N[C@H](C)C4)ncc3Cl)ccc2n(C)c1=O` [Compound I-9, 2-{[6-({5-chloro-2-[(3R,5R)-3-(hydroxymethyl)-5-methylpiperazin-1-yl]pyrimidin-4-yl}amino)-1-methyl-2-oxo-1,2-dihydroquinolin-3-yl]oxy}-N-methylacetamide], the IC50 worked out at 41 nM.

Consider `CNC(=O)COc1cc2cc(Nc3nc(N4CC(C)NC(CF)C4)ncc3Cl)ccc2n(C)c1=O` (centres unmarked) [Compound I-12, 2-{[6-({5-chloro-2-[3-(fluoromethyl)-5-methylpiperazin-1 yl]pyrimidin-4-yl}amino)-1-methyl-2-oxo-1,2-dihydroquinolin-3-yl]oxy}-N-methylacetamide], for which 7 nM corresponded to half-maximal inhibition (IC50).

`CNC(=O)COc1cc2cc(Nc3nc(N4CC(C)C(C(=O)N(C)C)C(C)C4)ncc3Cl)ccc2n(C)c1=O` (centres unmarked) [Compound I-13, 1-[5-chloro-4-({1-methyl-3-[(methylcarbamoyl)-methoxy]-2-oxo-1,2-dihydroquinolin-6-yl}amino)pyrimidin-2-yl]-N,N,3,5-tetramethylpiperidine-4-carboxamide] came in with a concentration for half-maximal inhibition (IC50) of 5 nM.

Turning to `CNC(=O)COc1cc2cc(Nc3nc(N4C[C@H](C(F)(F)F)C[C@H](C(F)(F)F)C4)ncc3Cl)ccc2n(C)c1=O` [Compound I-14, 2-{[6-({2-[cis-3,5-bis(trifluoromethyl)piperidin-1-yl]-5-chloropyrimidin-4-yl}amino)-1-methyl-2-oxo-1,2-dihydroquinolin-3-yl]oxy}-N-methyl-acetamide], the concentration for half-maximal inhibition (IC50) came out at 20 nM.

Consider `CNC(=O)COc1cc2cc(Nc3nc(N4CCN(c5ccccn5)CC4)ncc3Cl)ccc2n(C)c1=O` [Compound I-15], for which the concentration for half-maximal inhibition (IC50) was 32 nM.

The compound `CNC(=O)COc1cc2cc(Nc3nc(N4CCN(CCN(C)C)C(=O)C4)ncc3Cl)ccc2n(C)c1=O` [Compound I-16] came in with an IC50 of 10 nM.

In the case of `CNC(=O)COc1cc2cc(Nc3nc(N4CCCC[C@H]4C)ncc3Cl)ccc2n(C)c1=O` [Compound I-17], the IC50 stood at 8 nM.

With `CNC(=O)COc1cc2cc(Nc3nc(N4CCN(C(=O)CN(C)C)CC4)ncc3Cl)ccc2n(C)c1=O` [Compound I-18], 7 nM corresponded to half-maximal inhibition (IC50).

Compound `CNC(=O)COc1cc2cc(Nc3nc(N4CCCCC4)ncc3Cl)ccc2n(C)c1=O` [Compound I-19] registered an IC50 of 6 nM.

Compound `CNC(=O)COc1cc2cc(Nc3nc(N4CCN(CCN(C)C)CC4)ncc3Cl)ccc2n(C)c1=O` [Compound I-20] displayed an IC50 of 6 nM.

`CNC(=O)COc1cc2cc(Nc3nc(N4CCCC(F)CC4)ncc3F)ccc2n(C)c1=O` (centres unmarked) [Compound I-21]: the half-maximal inhibitory concentration (IC50) came out at 12 nM.

The compound `CNC(=O)COc1cc2cc(Nc3nc(N4CCC(F)CC4)ncc3F)ccc2n(C)c1=O` [Compound I-22] had a half-maximal inhibitory concentration (IC50) of 10 nM.

For the compound `CNC(=O)COc1cc2cc(Nc3nc(N4C[C@H](C)C[C@H](C)C4)ncc3F)ccc2n(C)c1=O` [Compound I-23], the IC50 worked out at 9 nM.

For `CNC(=O)COc1cc2cc(Nc3nc(N4CC(C)(C)CC(C)(C)C4)ncc3Cl)ccc2n(C)c1=O` [Compound I-24], the IC50 stood at 13 nM.

Turning to `CNC(=O)COc1cc2cc(Nc3nc(N4CCC(F)CC4)ncc3Cl)ccc2n(C)c1=O` [Compound I-25], it took 4 nM to reach half-maximal inhibition (IC50).

With `CNC(=O)COc1cc2cc(Nc3nc(N4CCC(F)(F)CC4)ncc3Cl)ccc2n(C)c1=O` [Compound I-26], it took 4 nM to reach half-maximal inhibition (IC50).

In the case of `CNC(=O)COc1cc2cc(Nc3nc(N4CCC(F)(F)CC4)ncc3F)ccc2n(C)c1=O` [Compound I-27], inhibition was half-maximal at 6 nM (IC50).

`CNC(=O)COc1cc2cc(Nc3nc(N4CCC(C(=O)N(C)C)CC4)ncc3F)ccc2n(C)c1=O` [Compound I-28] yielded an IC50 of 12 nM.

`CNC(=O)COc1cc2cc(Nc3nc(N4CCCC(F)(F)C4)ncc3Cl)ccc2n(C)c1=O` [Compound I-29] showed a half-inhibitory concentration (IC50) of 10 nM.

Consider `CNC(=O)COc1cc2cc(Nc3nc(N4CCC(C#N)CC4)ncc3Cl)ccc2n(C)c1=O` [Compound I-30], for which the IC50 was determined as 5 nM.

With `CNC(=O)COc1cc2cc(Nc3nc(N4CCC5(CC4)CC5)ncc3Cl)ccc2n(C)c1=O` [Compound I-31], half-maximal inhibition (IC50) required 6 nM.

Turning to `CNC(=O)COc1cc2cc(Nc3nc(N4CCC(O)(C(F)(F)F)CC4)ncc3Cl)ccc2n(C)c1=O` [Compound I-32], the IC50 turned out to be 5 nM.

As for `CNC(=O)COc1cc2cc(Nc3nc(N4CCC(C(F)(F)F)CC4)ncc3Cl)ccc2n(C)c1=O` [Compound I-33], the IC50 came out at 62 nM.

As to `CNC(=O)COc1cc2cc(Nc3nc(N4CCC(Cl)CC4)ncc3Cl)ccc2n(C)c1=O` [Compound I-34], half-maximal inhibition (IC50) was put at 6 nM.

Regarding `CNC(=O)COc1cc2cc(Nc3nc(N4CCC(C)CC4)ncc3Cl)ccc2n(C)c1=O` [Compound I-35], half-maximal inhibition (IC50) was put at 8 nM.

`CNC(=O)COc1cc2cc(Nc3nc(N4CCC5(CCN(C)CC5)CC4)ncc3Cl)ccc2n(C)c1=O` [Compound I-36] yielded a half-inhibitory concentration (IC50) of 5 nM.

In the case of `CNC(=O)COc1cc2cc(Nc3nc(N4CCC(N5CCCCCC5)CC4)ncc3Cl)ccc2n(C)c1=O` [Compound I-37], the midpoint of inhibition, the IC50, lay at 7 nM.

`CCN1CCN(C2CCN(c3ncc(Cl)c(Nc4ccc5c(c4)cc(OCC(=O)NC)c(=O)n5C)n3)CC2)CC1` [Compound I-38] came in with a half-maximal inhibitory concentration (IC50) of 35 nM.

For the origin of these results see US11001570B2, “6-amino-quinolinone compounds and derivatives as BCL6 inhibitors” (Boehringer Ingelheim International GmbH, priority 2016, dated 2021).
